Assay results as given in patent US11865126B2, “Method for treating anxiety disorders, headache disorders, and eating disorders with psilocybin” (priority 2019, dated 2024).

Tested on: healthy subjects
Experiment: Pictorial Empathy Test (PET)
Assay type: in vivo, human
Procedure: In some embodiments, the Pictorial Empathy Test (PET) is utilized to evaluate the effect of psilocybin on affective empathy.
The following list of outcome measures are non-exhaustive. • a. The short-term change from Baseline (Day −1 [Visit 2]) to Day 7 (Visit 5) in cognitive measures of attention, spatial and working memory and executive function was measured by a composite score of the CANTAB Panel (Spatial Working Memory [SWM], Rapid Visual Information Processing [RVP], Paired Associates Learning [PAL]). • b. The short-term change from Baseline (Day −1 [Visit 2]) to Day 7 (Visit 5) in Social Cognition Panel scales (Pictorial Empathy Test [PET], Reading the Mind in the Eyes Test [RMET], Toronto Empathy Questionnaire [TEQ], Social Value Orientation [SVO], Scale of Social Responsibility [SSR]). • c. The change from Baseline (Day −1 [Visit 2]) to Day 28 (Visit 6) in cognitive measures of attention, spatial and working memory and executive function as measured by a composite score of the CANTAB Panel (SWM, RVP, PAL). • d. The long-term change from Baseline (Day −1 [Visit 2]) to Day 84 (Visit 7) in Social Cognition Panel scales (PET, RMET, TEQ, SVO, SSR). • e. Dose-related differences between cognitive effects of psilocybin at Baseline (Day −1 [Visit 2]), Day 7 (Visit 5) and Day 28 (Visit 6), as measured by a composite score of the CANTAB Panel (SWM, RVP, PAL). • f. Dose-related differences between psychological effects of psilocybin at Baseline (Day −1 [Visit 2]), Day 7 (Visit 5) and Day 84 (Visit 7), as measured by Social Cognition Panel scales (PET, RMET, TEQ, SVO, SSR). • g. Differences in cognitive effects of psilocybin between psilocybin-naïve and experienced subjects at Baseline (Day −1 [Visit 2]), Day 7 (Visit 5) and Day 28 (Visit 6), as measured by a composite score of the CANTAB Panel (SWM, RVP, PAL). • h. Differences in Positive and Negative Affect Schedule (PANAS) after study drug administration on Day 0 (Visit 3). • i. Differences between psilocybin and placebo in the Emotion Recognition Test (ERT), Intra-Extra Dimensional Set Shift (IED), One Touch Stockings (OTS), Verbal Fluency and Digit Span Forward at Day 7 (Visit 5). • j. A composite score of the CANTAB Panel, including the following tests: • i. Spatial Working Memory (SWM) (performed at Visit 2, Visit 5, and Visit 6). • ii. Rapid Visual Information Processing (RVP) (performed at Visit 2, Visit 5, and Visit 6). • iii. Paired Associates Learning (PAL) (performed at Visit 2, Visit 5, and Visit 6). • k. Cognitive Flexibility Panel • i. Emotion Recognition Task (ERT) (performed at Visit 5). • ii. Intra-Extra Dimensional Set Shift (IED) (performed at Visit 5). • iii. One Touch Stockings (OTS) (performed at Visit 5). • iv. Verbal Fluency (performed at Visit 5). • v. Digit Span Forward (performed at Visit 5). • l. Five Dimension Altered States of Consciousness questionnaire (5D-ASC) (performed at Visit 3). • m. PANAS (performed at Visit 2 and Visit 3). • n. NEO-Five Factor Inventory (NEO-FFI) (performed at Visit 2, Visit 5, and Visit 7). • o. Symptom Checklist-90 item (SCL-90) (performed at Visit 2, Visit 5, and Visit 7). • p. Life Changes Inventory (LCI): The LCI measures changes in attitudes and values after near-death experiences often used to evaluate personal transformation following spiritually oriented experiences and practices. (performed at Visit 5 and Visit 7). • q. Social Cognition Panel scales • i. Pictorial Empathy Test (PET) (performed at Visit 2, Visit 5, and Visit 7). • ii. Reading the Mind in the Eyes Test (RMET) (performed at Visit 2, Visit 5, and Visit 7). • iii. Social Value Orientation (SVO) (performed at Visit 2, Visit 5, and Visit 7). • iv. Toronto Empathy Questionnaire (TEQ) (performed at Visit 2, Visit 5, and Visit 7). • v. Scale of Social Responsibility (SSR) (performed at Visit 2, Visit 5, and Visit 7). • r. Sheehan Suicidality Tracking Scale (SSTS) • s. Mini International Neuropsychiatric Interview (MINI). • t. […]

What does the source list for CN(C)CCc1c[nH]c2cccc(OP(=O)(O)O)c12 [psilocybin]?
PET change from baseline, LS mean difference Psilocybin 10 mg - Placebo (Day 7, MMRM): −0.1; PET change from baseline, LS mean difference Psilocybin 25 mg - Placebo (Day 7, MMRM): 0.2; PET change from baseline, LS mean difference Psilocybin 25 mg-10 mg (Day 7, MMRM): 0.3; PET change from baseline, LS mean difference Psilocybin 10 mg - Placebo (Day 84, MMRM): −0.1; PET change from baseline, LS mean difference Psilocybin 25 mg - Placebo (Day 84, MMRM): 0.1; PET change from baseline, LS mean difference Psilocybin 25 mg-10 mg (Day 84, MMRM): 0.3
